In patent US8268836B2, “Compound useful as a c-Met inhibitor” (Eli Lilly and Company, priority 2010, dated 2012):
Read-outs that look alike come from different tables or passages of the source.

Experiments:
[1] = Plasma concentration in IVTI studies; type: in vivo; conditions: athymic nude, mouse, oral, 10% acacia
Method: (§1) In IVTI studies, each compound is administered orally and formulated in 10% w/v acacia. Mouse blood samples are collected with anti-coagulant (EDTA-purple top Vacutainer tube) post-dose using cardiac puncture techniques. Tubes are inverted for 3-5 times and are placed on ice until centrifugation at 3000 RPM (1800×g) for 10 min at 4° C. to obtain plasma. Aliquots of plasma are pipetted and stored in a clean 96 well plate. Plasma samples are stored immediately at −80° C. Shipments of plasma samples are packed in dry ice and samples are frozen at −80° C. until analysis.
A 0.1-mg/mL stock solution of each drug was prepared and is serially diluted into pooled mouse plasma to prepare standards ranging from 1 to 5000 ng/mL. Plasma standards or samples (0.025 mL) in 96-well plates are treated by protein precipitation with the addition of a 0.1-0.2 ml of methanol: acetonitrile (1/1, v/v) containing internal standard. […] Samples and standards are analyzed with a Sciex API 4000 Triple Quadrupole Mass Spectrometer (Sciex, Division of MDS Inc., Toronto, Canada) coupled to a Shimadzu HPLC System (LC-10AD, Shimadzu Corporation) and a Gilson 215 Autosampler. […] Quantitation is performed using multiple reaction monitoring (MRM) at the following transitions: Example 1 (m/z 363.05 to m/z 163.10) and the reference compound 20 (m/z 363.05 to m/z 163.10). […]

[2] = Kinetic solubility screen (nephelometry); type: physicochemical
Method: The assay is used to determine the concentration range in which a compound that has been pre-solubilized in DMSO at 10 mM will precipitate from a solution. The assay is conducted in a screening format on a 96-well plate and measures the nephelometry (light scattering) from precipitated compound in aqueous phosphate buffer (50 mM; pH 7.4). This method consists of a 2-hour RT (room temperature) incubation of compound in buffer at concentrations of 10, 20, 40, 60, 80, and 100 μM (where % DMSO is kept constant). Plates are pre-read by the nephelometer to determine if scratches or dust particles are present and this is used for background subtraction. The reported values are the concentrations at which the last soluble and first insoluble are achieved. These assays are not optimized to assess equilibrium solubility or determine a “true” kinetic solubility.

[3] = target: T1, human c-Met (phospho-c-Met in S114 tumors) (Homo sapiens, UniProt P08581); assay: c-Met in vivo target inhibition (IVTI) assay, S114 tumors in nude mice; parameters: species or system mouse
T1 construct: expressed in transfected cells; host or cells: S114 cells grown as subcutaneous tumors in athymic nude mice
T1 sequence (P08581 25-1390): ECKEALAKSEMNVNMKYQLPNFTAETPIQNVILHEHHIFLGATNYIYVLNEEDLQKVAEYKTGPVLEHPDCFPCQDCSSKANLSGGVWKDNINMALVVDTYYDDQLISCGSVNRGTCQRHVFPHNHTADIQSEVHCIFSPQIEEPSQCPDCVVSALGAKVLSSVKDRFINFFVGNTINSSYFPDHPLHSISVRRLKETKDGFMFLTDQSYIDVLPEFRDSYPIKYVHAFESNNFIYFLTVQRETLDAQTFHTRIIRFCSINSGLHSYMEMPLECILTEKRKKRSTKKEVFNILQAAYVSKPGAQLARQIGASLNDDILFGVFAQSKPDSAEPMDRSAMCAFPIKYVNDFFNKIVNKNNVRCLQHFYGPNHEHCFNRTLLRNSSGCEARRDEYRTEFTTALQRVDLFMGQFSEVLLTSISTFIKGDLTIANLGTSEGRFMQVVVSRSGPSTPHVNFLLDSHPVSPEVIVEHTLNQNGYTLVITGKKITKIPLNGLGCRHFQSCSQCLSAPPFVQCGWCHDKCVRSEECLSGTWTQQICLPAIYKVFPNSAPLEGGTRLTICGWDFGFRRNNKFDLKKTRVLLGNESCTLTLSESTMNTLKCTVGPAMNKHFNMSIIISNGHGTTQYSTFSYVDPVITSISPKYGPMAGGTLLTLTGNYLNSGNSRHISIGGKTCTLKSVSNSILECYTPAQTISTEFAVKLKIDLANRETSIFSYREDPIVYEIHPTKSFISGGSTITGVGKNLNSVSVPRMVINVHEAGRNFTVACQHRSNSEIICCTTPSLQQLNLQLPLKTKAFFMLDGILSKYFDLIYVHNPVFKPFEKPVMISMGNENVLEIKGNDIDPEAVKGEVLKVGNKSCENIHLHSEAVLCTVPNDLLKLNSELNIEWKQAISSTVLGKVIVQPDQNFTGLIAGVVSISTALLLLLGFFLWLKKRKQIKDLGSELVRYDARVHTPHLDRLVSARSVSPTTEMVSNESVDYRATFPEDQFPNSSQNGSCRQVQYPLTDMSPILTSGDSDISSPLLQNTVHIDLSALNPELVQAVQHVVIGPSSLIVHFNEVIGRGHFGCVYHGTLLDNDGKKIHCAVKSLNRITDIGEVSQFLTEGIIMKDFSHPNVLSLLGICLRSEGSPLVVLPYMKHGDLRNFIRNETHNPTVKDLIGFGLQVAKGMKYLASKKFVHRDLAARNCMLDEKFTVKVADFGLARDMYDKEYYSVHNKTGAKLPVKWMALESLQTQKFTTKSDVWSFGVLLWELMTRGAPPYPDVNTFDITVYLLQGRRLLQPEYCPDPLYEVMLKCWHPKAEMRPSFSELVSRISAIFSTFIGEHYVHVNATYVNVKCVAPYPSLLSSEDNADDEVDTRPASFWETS
Method: S114 cells (over-expressing both human HGF and human c-Met) are cultured in a growth media (Dulbecco's Modified Eagle Medium) supplemented with 10% fetal calf serum and expanded. Cells are harvested and washed twice with phosphate buffered saline and 2×10^6 cells are mixed with equal volume of BD Matrigel™ matrix (BD Bioscience, Franklin, N.J.), and injected subcutaneously into the flank of nude mice (athymic nude, from Harlan, Indianapolis, Ind.). At day 8 after implant, compounds (formulated in 10% acacia or 1% carboxymethylcellulose/0.5% sodium lauryl sulfate/0.05% antifoam as suspension) are administered to animals by oral gavage at 50 mg/kg. Animals are sacrificed at 2 h post dose, and tumors are harvested and stored frozen until needed.
Frozen tumors are pulverized using motar-pestel. The pulverized tissues are transferred to a tube containing Lysing Matrix D beads (MP Biomedicals, Solon, Ohio) and 600 μL lysis buffer (RIPA buffer, containing 50 mM Tris-HCl, pH 7.4, 150 mM NaCl, 1% NP-40, 0.5% sodium deoxycholate, 0.1% SDS, from Boston Bioproducts, Phosphatase Inhibitors I and II and Protease Inhibitor (Sigma, St. Louis, Mo.)). A FastPrep® Cell Disrupter (MP Biomedicals, Inc.) is used to disrupt the tissue and lyse the cells. Lysates are passed through a 20 gauge needle and transferred to a clean tube. Protein concentration is determined by Bradford method known to one of skill in the art.
Tumor lysates are loaded onto MSD® phosphor-Met ELISA plates and phosphor-c-Met level is determined using the same protocol as H460 cell-based ELISA. […] The TEC50 for example 1 is 0.18 μM with a 95% confidence interval bounded by 0.13 μM and 0.23 μM.
as §1

Cn1cc(-c2ccc3nnc(Sc4ccc5nn(C)cc5c4)n3n2)cn1 [Example 1, 6-(1-Methyl-1H-pyrazol-4-yl)-3-(2-methyl-2H-indazol-5-ylthio)-[1,2,4]triazolo[4,3-b]pyridazine]
concentration at 8 h ([1]; 8 mg/kg, read-out: Plasma conc. 8 mg/Kg after 8 h): 141 ng/mL
concentration at 8 h ([1]; 20 mg/kg, read-out: Plasma conc. 20 mg/Kg after 8 h): 318 ng/mL
1st insoluble pH 7.4 ([2]; 50 mM phosphate buffer pH 7.4, 2 h RT, from 10 mM DMSO): Non detect
solubility at 2 h ([2]; aqueous phosphate buffer, aqueous buffer, kinetic from dmso stock, 50 mM phosphate buffer pH 7.4, 2 h RT, from 10 mM DMSO, read-out: Last soluble pH 7.4): > 100 µM
fold more soluble than the reference compound in pH 7.4 buffer ([2]; kinetic solubility screen pH 7.4): at least 3 fold
inhibition at 16 mg/kg ([3]; 16 mg/Kg dose, 2 h, experiment separate from head to head study, read-out: Single dose IVTI % inhibition after 2 h): 98%
EC50 ([3]; S114 tumors in nude mice, read-out: TEC50): 180 nM
inhibition at 8 mg/kg ([3]; S114 tumors, oral 8 mg/kg, 8 h, read-out: % phos-Met inhibition at 8 mg/kg after 8 h): 75%
inhibition at 20 mg/kg ([3]; S114 tumors, oral 20 mg/kg, 8 h, read-out: % phos-Met inhibition at 20 mg/kg after 8 h): 93%
ED50 ([3]; oral gavage, S114 tumors in nude mice): 0.32 mg/kg
